Consider 3 compounds from paper PMC7597377 (Science signaling, 2020).

A word on the Ki: it is the equilibrium dissociation constant of an inhibitor or competing ligand from its target.

Each structure is given as a SMILES string. Where a chain is given by its changes, count along the chain named.

Common to all, as to test: competitive radiometric binding vs [3H]E2
Test [1] concerns the target T1, ERα LBD (WT-Q, his-tagged) (Homo sapiens, UniProt P03372, Q375E).
T1 sequence (P03372 302-552 Q375E limits assumed): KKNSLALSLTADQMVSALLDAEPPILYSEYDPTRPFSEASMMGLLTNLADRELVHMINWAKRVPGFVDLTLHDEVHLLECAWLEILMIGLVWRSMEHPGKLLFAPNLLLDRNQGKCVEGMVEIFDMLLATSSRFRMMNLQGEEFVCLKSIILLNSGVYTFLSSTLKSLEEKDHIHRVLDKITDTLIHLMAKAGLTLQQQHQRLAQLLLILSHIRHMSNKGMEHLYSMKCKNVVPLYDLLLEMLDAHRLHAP

Test [2] addresses T2, ERα LBD (WT-Q, his-tagged) (Homo sapiens, UniProt P03372).
T2 sequence (P03372 302-552 limits assumed): T1 sequence (P03372 302-552 Q375E limits assumed) with E74Q

The target of test [3] is T3, ERα LBD (WT-Q, his-tagged) (Homo sapiens, UniProt P03372, Q375K).
T3 sequence (P03372 302-552 Q375K limits assumed): T1 sequence (P03372 302-552 Q375E limits assumed) with E74K

Test [4] has as its target T4, ERα LBD (WT-Q, his-tagged) (Homo sapiens, UniProt P03372, Q375L).
T4 sequence (P03372 302-552 Q375L limits assumed): T1 sequence (P03372 302-552 Q375E limits assumed) with E74L

Test [5] deals with T5, ERα LBD (WT-Q, his-tagged) (Homo sapiens, UniProt P03372, Q375H).
T5 sequence (P03372 302-552 Q375H limits assumed): T1 sequence (P03372 302-552 Q375E limits assumed) with E74H

As for `C[C@]12C[C@H](CCl)[C@@H]3c4ccc(O)cc4CC[C@H]3[C@@H]1CC[C@@H]2O` [CME], the Ki in test [1] amounted to 350 ± 80 pM; in test [2], 110 ± 40 pM; in test [3], 410 ± 100 pM; in test [4] it was 220 ± 50 pM; in test [5], 580 ± 140 pM.

In the case of `CC[C@H]1C[C@]2(C)[C@@H](O)CC[C@H]2[C@@H]2CCc3cc(O)ccc3[C@@H]12` [Et-E2], the Ki was found to be 130 ± 40 pM in test [2], 290 ± 20 pM in test [3], 160 ± 40 pM in test [4] and 740 ± 40 pM in test [5].

As to `CC[C@H](c1ccc(O)cc1)[C@@H](CC)c1ccc(O)cc1` [Hex], the Ki in test [2] was determined as 60 ± 20 pM; in test [3], 290 ± 50 pM; in test [4], 70 ± 10 pM; in test [5] it was 290 ± 70 pM.
